This assay relates to HBV rcDNA in HepDE19 cells. Briefly: HepDE19 assay with bDNA quantitation of HBV rcDNA. Type of assay: cell-based, hepatitis B virus. The conditions noted are these: Hepatitis B virus, HepDE19, HepDE19 assay, inhibition of rcDNA formation, bDNA quantitation; read-out: DE-19bDNA EC50.
What is called EC50 is the concentration giving half of the maximal effect. For the molecule `Cc1ccc(C(=O)N(C)[C@@H]2COCc3[nH]c(=O)c4cc(F)c(F)cc4c32)cc1F` [Compound 137, (S)-N-(8,9-Difluoro-6-oxo-1,4,5,6-tetrahydro-2H-pyrano[3,4-c]isoquinolin-1-yl)-3-fluoro-N,4-dimethylbenzamide], the EC50 is 60 nM. `CN(C(=O)[C@H](O)c1cccc(Cl)c1)[C@@H]1COCc2[nH]c(=O)c3cc(F)c(F)cc3c21` [Compound 138, (R)-2-(3-Chlorophenyl)-N-((S)-8,9-difluoro-6-oxo-1,4,5,6-tetrahydro-2H-pyrano[3,4-c]isoquinolin-1-yl)-2-hydroxy-N-methylacetamide]: the EC50 was found to be 1200 nM. `CN(C(=O)c1cc(F)c(C(F)(F)F)c(F)c1)[C@@H]1COCc2[nH]c(=O)c3cc(F)c(F)cc3c21` [Compound 139, (S)-N-(8,9-Difluoro-6-oxo-1,4,5,6-tetrahydro-2H-pyrano[3,4-c]isoquinolin-1-yl)-3,5-difluoro-N-methyl-4-(trifluoromethyl)benzamide]: the EC50 came out at 10 nM.

For the molecule `CN(C(=O)c1csc(Cl)c1)[C@@H]1COCc2[nH]c(=O)c3cc(F)c(F)cc3c21` [Compound 140, (S)-5-Chloro-N-(8,9-difluoro-6-oxo-1,4,5,6-tetrahydro-2H-pyrano[3,4-c]isoquinolin-1-yl)-N-methylthiophene-3-carboxamide], the concentration for a half-maximal effect (EC50) is 100 nM. As for `CN([C@@H]1COCc2[nH]c(=O)c3cc(F)c(F)cc3c21)S(=O)(=O)c1ccc(F)c(Cl)c1` [Compound 143, (S)-3-Chloro-N-(8,9-difluoro-6-oxo-1,4,5,6-tetrahydro-2H-pyrano[3,4-c]isoquinolin-1-yl)-4-fluoro-N-methylbenzenesulfonamide], the figure is 18000 nM; as for `CN([C@@H]1COCc2[nH]c(=O)c3cc(F)c(F)cc3c21)S(=O)(=O)c1cccc(Cl)c1` [Compound 144, (S)-3-Chloro-N-(8,9-difluoro-6-oxo-1,4,5,6-tetrahydro-2H-pyrano[3,4-c]isoquinolin-1-yl)-N-methylbenzenesulfonamide], 12000 nM; as for `CN([C@@H]1COCc2[nH]c(=O)c3cc(F)c(F)cc3c21)S(=O)(=O)c1cccc(C#N)c1` [Compound 145, (S)-3-Cyano-N-(8,9-difluoro-6-oxo-1,4,5,6-tetrahydro-2H-pyrano[3,4-c]isoquinolin-1-yl)-N-methylbenzenesulfonamide], 5500 nM.

For the molecule `CN([C@@H]1COCc2[nH]c(=O)c3cc(F)c(F)cc3c21)S(=O)(=O)c1ccc(F)c(C#N)c1` [Compound 146, (S)-3-Cyano-N-(8,9-difluoro-6-oxo-1,4,5,6-tetrahydro-2H-pyrano[3,4-c]isoquinolin-1-yl)-4-fluoro-N-methylbenzenesulfonamide], the EC50 is 23000 nM. As for `CCc1ccc(C(=O)N(C)[C@@H]2COCc3[nH]c(=O)c4cc(F)c(F)cc4c32)cc1F` [Compound 147, (S)-N-(8,9-Difluoro-6-oxo-1,4,5,6-tetrahydro-2H-pyrano[3,4-c]isoquinolin-1-yl)-4-ethyl-3-fluoro-N-methylbenzamide], the EC50 was 3300 nM.

With `O=C(N[C@@H]1COCc2[nH]c(=O)c3cc(F)c(F)cc3c21)c1cc2ccccn2c1` [Compound 148, (S)-N-(8,9-Difluoro-6-oxo-1,4,5,6-tetrahydro-2H-pyrano[3,4-c]isoquinolin-1-yl)indolizine-2-carboxamide], the half-maximal effective concentration (EC50) was determined as 760 nM.

Consider `CN(C(=O)c1ccc(OC(F)F)c(F)c1)[C@@H]1COCc2[nH]c(=O)c3cc(F)c(F)cc3c21` [Compound 153, (S)-N-(8,9-Difluoro-6-oxo-1,4,5,6-tetrahydro-2H-pyrano[3,4-c]isoquinolin-1-yl)-4-(difluoromethoxy)-3-fluoro-N-methylbenzamide], for which the half-maximal effective concentration (EC50) was found to be 150 nM. The figure for `CN(C(=O)c1ccc(C(C)(C)O)cc1)[C@@H]1COCc2[nH]c(=O)c3cc(F)c(F)cc3c21` [Compound 154, (S)-N-(8,9-Difluoro-6-oxo-1,4,5,6-tetrahydro-2H-pyrano[3,4-c]isoquinolin-1-yl)-4-(2-hydroxypropan-2-yl)-N-methylbenzamide] is 1050 nM; for `CN(C(=O)c1cccc(C(C)(C)O)c1)[C@@H]1COCc2[nH]c(=O)c3cc(F)c(F)cc3c21` [Compound 155, (S)-N-(8,9-Difluoro-6-oxo-1,4,5,6-tetrahydro-2H-pyrano[3,4-c]isoquinolin-1-yl)-3-(2-hydroxypropan-2-yl)-N-methylbenzamide] it is 4490 nM. In the case of `O=C(N[C@@H]1COCc2[nH]c(=O)c3cc(F)c(F)cc3c21)c1cc2cc(F)c(F)cc2[nH]1` [Compound 156, (S)-N-(8,9-Difluoro-6-oxo-1,4,5,6-tetrahydro-2H-pyrano[3,4-c]isoquinolin-1-yl)-5,6-difluoro-1H-indole-2-carboxamide], the EC50 was 490 nM. `O=C(N[C@@H]1COCc2[nH]c(=O)c3cc(F)c(F)cc3c21)c1cc2c(F)cc(F)cc2[nH]1` [Compound 157, (S)-N-(8,9-Difluoro-6-oxo-1,4,5,6-tetrahydro-2H-pyrano[3,4-c]isoquinolin-1-yl)-4,6-difluoro-1H-indole-2-carboxamide]: the EC50 amounted to 250 nM. For the molecule `O=C(N[C@@H]1COCc2[nH]c(=O)c3cc(F)c(F)cc3c21)c1ccc(C(F)(F)F)c(F)c1` [Compound 158, (S)-N-(8,9-Difluoro-6-oxo-1,4,5,6-tetrahydro-2H-pyrano[3,4-c]isoquinolin-1-yl)-3-fluoro-4-(trifluoromethyl)benzamide], the half-maximal effective concentration (EC50) turned out to be 580 nM. As for `O=C(N[C@@H]1COCc2[nH]c(=O)c3cc(F)c(F)cc3c21)c1ccc(Cl)c(F)c1` [Compound 159, (S)-4-chloro-N-(8,9-difluoro-6-oxo-1,4,5,6-tetrahydro-2H-pyrano[3,4-c]isoquinolin-1-yl)-3-fluorobenzamide], the figure is 660 nM.

For `CN(C(=O)c1cc(F)c(Br)c(F)c1)[C@@H]1COCc2[nH]c(=O)c3cc(F)c(F)cc3c21` [Compound 172, 4-Bromo-N-(8,9-difluoro-6-oxo-2,4,5,6-tetrahydro-1H-pyrano[3,4-c]isoquinolin-1-yl)-3,5-difluoro-N-methylbenzamide], the concentration giving a half-maximal response (EC50) is 10 nM.

With `CN(C(=O)c1cc(F)c(Cl)c(F)c1)[C@@H]1COCc2[nH]c(=O)c3cc(F)c(F)cc3c21` [Compound 173, 4-Chloro-N-(8,9-difluoro-6-oxo-2,4,5,6-tetrahydro-1H-pyrano[3,4-c]isoquinolin-1-yl)-3,5-difluoro-N-methylbenzamide], the EC50 was found to be 10 nM.

Take `CN(C(=O)c1cc(F)c(C(F)F)c(F)c1)[C@@H]1COCc2[nH]c(=O)c3cc(F)c(F)cc3c21` [Compound 180, (S)-N-(8,9-Difluoro-6-oxo-1,4,5,6-tetrahydro-2H-pyrano[3,4-c]isoquinolin-1-yl)-4-(difluoromethyl)-3,5-difluoro-N-methylbenzamide]: the EC50 turned out to be 160 nM.

On to `CN(C(=O)c1cc2cc(F)c(F)cc2[nH]1)[C@@H]1COC(O)c2[nH]c(=O)c3cc(F)c(F)cc3c21` (stereo partly drawn) [Compound 187, N-((1S)-8,9-Difluoro-4-hydroxy-6-oxo-1,4,5,6-tetrahydro-2H-pyrano[3,4-c]isoquinolin-1-yl)-5,6-difluoro-N-methyl-1H-indole-2-carboxamide], for which the concentration giving a half-maximal response (EC50) was 10 nM. Consider `CN(C(=O)c1cnn(C)c1)[C@@H]1COCc2[nH]c(=O)c3cc(F)c(F)cc3c21` [Compound 188, (S)-N-(8,9-Difluoro-6-oxo-1,4,5,6-tetrahydro-2H-pyrano[3,4-c]isoquinolin-1-yl)-N,1-dimethyl-1H-pyrazole-4-carboxamide], for which the EC50 stood at 18300 nM.

For `C=C(C(=O)N(C)[C@@H]1COCc2[nH]c(=O)c3cc(F)c(F)cc3c21)c1ccccc1` [Compound 189, (S)-N-(8,9-Difluoro-6-oxo-1,4,5,6-tetrahydro-2H-pyrano[3,4-c]isoquinolin-1-yl)-N-methyl-2-phenylacrylamide], the EC50 was 4400 nM.

With `CN(C(=O)c1cc2cc(F)cnc2[nH]1)[C@@H]1COCc2[nH]c(=O)c3cc(F)c(F)cc3c21` [Compound 190, (S)-N-(8,9-Difluoro-6-oxo-1,4,5,6-tetrahydro-2H-pyrano[3,4-c]isoquinolin-1-yl)-5-fluoro-N-methyl-1H-pyrrolo[2,3-b]pyridine-2-carboxamide], the EC50 stood at 330 nM. On to `CN(C(=O)c1cc2cc(Cl)cnc2[nH]1)[C@@H]1COCc2[nH]c(=O)c3cc(F)c(F)cc3c21` [Compound 191, (S)-5-Chloro-N-(8,9-difluoro-6-oxo-1,4,5,6-tetrahydro-2H-pyrano[3,4-c]isoquinolin-1-yl)-N-methyl-1H-pyrrolo[2,3-b]pyridine-2-carboxamide], for which the EC50 is 120 nM. As for `CN(C(=O)c1cc2cc(Br)cnc2[nH]1)[C@@H]1COCc2[nH]c(=O)c3cc(F)c(F)cc3c21` [Compound 192, (S)-5-Bromo-N-(8,9-difluoro-6-oxo-1,4,5,6-tetrahydro-2H-pyrano[3,4-c]isoquinolin-1-yl)-N-methyl-1H-pyrrolo[2,3-b]pyridine-2-carboxamide], the concentration giving a half-maximal response (EC50) came out at 260 nM. As for `CN(C(=O)c1c[nH]c(=O)c(C(F)(F)F)c1)[C@@H]1COCc2[nH]c(=O)c3cc(F)c(F)cc3c21` [Compound 193, (S)-N-(8,9-Difluoro-6-oxo-1,4,5,6-tetrahydro-2H-pyrano[3,4-c]isoquinolin-1-yl)-N-methyl-6-oxo-5-(trifluoromethyl)-1,6-dihydropyridine-3-carboxamide], the figure is 3200 nM.

In the case of `CN(C(=O)c1csc(Br)c1)[C@@H]1COCc2[nH]c(=O)c3cc(F)c(F)cc3c21` [Compound 194, (S)-5-Bromo-N-(8,9-difluoro-6-oxo-1,4,5,6-tetrahydro-2H-pyrano[3,4-c]isoquinolin-1-yl)-N-methylthiophene-3-carboxamide], the EC50 amounted to 70 nM.

As to `CN(C(=O)C1Cc2ccccc2C1)[C@@H]1COCc2[nH]c(=O)c3cc(F)c(F)cc3c21` [Compound 195, (S)-N-(8,9-Difluoro-6-oxo-1,4,5,6-tetrahydro-2H-pyrano[3,4-c]isoquinolin-1-yl)-N-methyl-2,3-dihydro-1H-indene-2-carboxamide], the concentration giving a half-maximal response (EC50) was determined as 150 nM.

These data come from patent US20240228504A1, “SUBSTITUTED TRICYCLIC AMIDES, ANALOGUES THEREOF, AND METHODS USING SAME” (Arbutus Biopharma Corporation, priority 2020, published 2024).
